Measurements: US8546090B2, “SIRT4 activities” (Massachusetts Institute of Technology, priority 2005, dated 2013)

Tests used:
[1] = system: MIN6 cells; assay: Insulin secretion assay in MIN6 cells (ELISA); assay type: cell-based, mouse
Description: FIG. 4. The role of Sirt4 in insulin secretion. FIG. 4A. The levels of Sirt4 were reduced in MIN6 cells infected with virus that contained Sirt4 RNAi sequences compared to cells infected with pSUPER. FIG. 4B. Insulin secretion was measured from control or RNAi MIN6 cells. Cells were pre-incubated with KRB buffer containing 3 mM glucose, then cells were shifted to buffer containing either 3 mM (open bars) or 16.7 mM glucose (filled bars). Insulin in the buffer was measured by ELISA after a 45 min incubation at 37° C. FIG. 4C. Insulin remaining inside cells was measured at the end of the insulin secretion assays by ELISA.
FIG. 7. Elevated glutamate dehydrogenase activity contributes to increased insulin secretion in Sirt4 RNAi cells. FIG. 7A. MIN6 cells were co-infected with RNAi for Sirt4 and glutamate dehydrogenase, and protein levels were compared to control infections. FIG. 7B. Insulin secretion assays were performed in double-infected or control cells as described previously. FIG. 7C. Insulin secretion assays were performed in control or Sirt4 RNAi treated cells in the presence or absence of BCH, an activator of glutamate dehydrogenase.
MIN6 cells were plated in the wells of a 12-well plate at least 24-hours before secretion assays. […] Insulin concentration was measured by ELISA (Alpco Diagnostics; Windham, N.H.).

[2] = system: bovine recombinant glutamate dehydrogenase; assay: Glutamate dehydrogenase assay after incubation with Sirt4; assay type: biochemical
Description: FIG. 6. Glutamate dehydrogenase inhibition by Sirt4. FIG. 6A. The enzymatic activity of glutamate dehydrogenase ([…]) was measured before (open bars, T=0) after a 60 min incubation (filled bars, T=60) at 37° C. with hSirt4-FLAG (50 ng) or a buffer control in the presence of 1 mM NAD^+. Experiments were replicated 3-5 times. FIG. 6B. Inhibition of glutamate dehydrogenase by Sirt4 requires 1 mM NAD^+. Glutamate dehydrogenase (50 mg) was incubated with Sirt4 at 37° C. in the presence (pink) or absence (blue) of 1 mM NAD^+. Aliquots (1 ml) were removed at T=0, 5, 15, 30, 60, or 120 min, and glutamate dehydrogenase activity was measured for each time point. FIG. 6C. The activity of glutamate dehydrogenase was measure in mitochondrial lysates (30 mg) from control or Sirt4 RNAi cells. Experiments were performed 3-5 times using cell lines from two separate infections.
Glutamate dehydrogenase (50 μg; Ultrapure from Sigma) was incubated with or without Sirt4 (10 ng) in […] of ADP-ribosylation buffer (50 mM Tris pH 8.0, 10 mM DTT, 150 mM NaCl) in the presence or absence of 1 mM NAD or 1 mM nicotinamide at 37° C. for the indicated times. Then, an aliquot of the reaction was assayed for glutamate dehydrogenase activity. Activity assays were performed at 25° C. using a BioSpec-1601 spectrophotometer (Shimadzu Scientific Instruments, Inc; Braintree, Mass.) at A340 based on the oxidation of NADH as described previously. Data was collected for 5-10 min. at 10 sec. intervals. At the end of each experiment, less than 10% of substrates had been depleted.
Sirt4 or a buffer control was incubated with bovine recombinant glutamate dehydrogenase for one hour in the presence of NAD. Then, the glutamate dehydrogenase activity was assessed by monitoring the disappearance of NADH (A340). […] To verify that this inhibition was dependent on the availability of NAD^+, we incubated Sirt4 with or without NAD^+ with glutamate dehydrogenase for various times. […]

| inhibition of glutamate dehydrogenase activity ([2]; after incubating for 12 hours) | inhibition of glutamate dehydrogenase activity ([2]; within 2 hours, in the presence of NAD+) | Compound | insulin secretion with BCH and 16.7 mM glucose compared to 16.7 mM glucose alone ([1]; Sirt4 RNAi treated MIN6 cells) | insulin secretion with BCH and 16.7 mM glucose compared to 16.7 mM glucose alone ([1]; control MIN6 cells) | enzymatic activity of glutamate dehydrogenase ([2]; incubated one hour in the presence of NAD, versus buffer control) |
| --- | --- | --- | --- | --- | --- |
|  |  | NC1(C(=O)O)CC2CCC1C2 (centres unmarked) [BCH] | did not secrete more insulin | enhanced insulin secretion |  |
| more than 90% | 50% | Sirt4: human Sirt4 with C-terminal FLAG, immunoprecipitated from 293T cells; ADP-ribosyltransferase |  |  | significantly reduced |
